Where a SMILES comes first, the peptide text is derived from it. [ ]: non-standard residue; d: D form. Bounds are passed on as bounds.

Consider 20 molecules from patent US9925398B2, “Angiogenic peptide” (NOVACELL TECHNOLOGY INC., priority 2008, dated 2018).

One experiment has as its system MS-1 cells. Description: Suppression of SFKLRY-NH2-induced [Ca2+]i increase in MS-1 cells by inhibitors. It is filed as cell-based, murine. The following applies: 100 ng/mL for 2 h prior to SFKLRY-NH2. Here is the method: FIGS. 3A-3B show BAPTA, U73122 and PTX suppressed SFKLRY-NH2-induced [Ca^2+]i increase in MS-1 cells. […] (A) The cells were pre-incubated in DMEM containing 10 μM BAPTA-AM with Fluo-4/AM for 30 min at 37° C. Cells were suspended in Ca^2+-free Locke's solution containing 0.2 mM EGTA and treated with indicated concentrations of SFKLRY-NH2 (SEQ ID NO: 2). The change in fluorescence intensity was determined with excitation at 488 nm and the emission at 520 nm. (B) Cells were preincubated with or without U73122 (10 μM), U73433 (10 μM) for 30 min, and PTX (100 ng/mL) for 2 h with Fura-2, respectively. Fura-2-loaded cells were then suspended in Ca^2+-free Locke's solution and then treated with 1 μM SFKLRY-NH2 (SEQ ID NO: 2). The data are represent means±3 independent experiments each performed in triplicate. *P<0.05.
As to Pertussis toxin [PTX], the “effect on peptide-dependent intracellular Ca2+ mobilization” value was “remarkably attenuated”.

The experiment is the same for the next values; noted with them: 10 μM preloading; Ca2+-free Locke's solution with 0.2 mM EGTA.
`CC(=O)OCOC(=O)CN(CC(=O)OCOC(C)=O)c1ccccc1OCCOc1ccccc1N(CC(=O)OCOC(C)=O)CC(=O)OCOC(C)=O` [BAPTA-AM, 1,2-bis(2-aminophenoxy)ethane-N,N,N′,N′-tetraacetoxymethyl ester]: the “effect on peptide-induced [Ca2+]i increase” value is “completely abolished”.

Still in this experiment, the particulars now being: 10 μM, 30 min preincubation; 1 μM SFKLRY-NH2.
Turning to `COc1ccc2c(c1)CC[C@@H]1[C@@H]2CC[C@]2(C)[C@@H](NCCCCCCN3C(=O)C=CC3=O)CC[C@@H]12` [U73122], the “effect on peptide-induced intracellular calcium mobilization” value was “completely abolished”.
Still for that read-out and setting: in the case of `COc1ccc2c(c1)CC[C@@H]1[C@@H]2CC[C@]2(C)[C@@H](NCCCCCCN3C(=O)CCC3=O)CC[C@@H]12` [U73433] it was “little inhibitory effect”.

The next experiment deals with MS-1 cells. Description: [Ca2+]i mobilization assay in MS-1 cells. It is filed as cell-based, murine. The following applies: three experiments, read-out: Mean EC50 (μM), dose-dependent changes in intracellular Ca2+. Here is the method: Cells were incubated with 4 μM Fura-2 AM and 250 μM sulfinpyrazone in serum-free DMEM medium at 37° C. for 30 min with continuous stirring. The cells were then washed with Locke's solution (M. Faehling, et al., FASEB J 16 (2002), pp. 1805-1807) and diluted to 2×10^6 cells/mL. 50 μL aliquots of cell suspension were added to each well of a 96-well plate, and the change in fluorescence ratio was determined at dual excitation wavelengths of 340 and 380 nm and emission wavelength of 500 nm following addition of peptides. Plates were read immediately following the addition of peptide pools, resulting in a time delay of approximately 5 s between peptide addition and detection by the FLEXstation (Molecular Devices). Negative and positive controls were run simultaneously with test samples to ensure that all samples were subjected to identical conditions. The calibration of the fluorescence ratio in terms of [Ca^2+]i was performed according to Grynkiewicz et al. J Biol Chem 260 (1985), pp. 3440-3450.
To identify peptides that stimulate intracellular calcium mobilization in murine endothelial cells (MS-1 cells), the inventors screened 114 pools of C-terminally amidated synthetic hexapeptides.
In general, EC50 refers to the concentration at which the effect is half-maximal. On to `CC(C)C[C@H](NC(=O)[C@H](CCCCN)NC(=O)[C@H](Cc1ccccc1)NC(=O)[C@@H](N)CO)C(=O)N[C@@H](CCCNC(=N)N)C(=O)N[C@@H](Cc1ccc(O)cc1)C(=O)O` [SEQ ID NO 1, SFKLRY-COOH] (H-SFKLRY-OH; N-terminus assumed), for which the EC50 is over 10 µM.
Same read-out and setting: in the case of `CC(C)C[C@H](NC(=O)[C@H](CCCCN)NC(=O)[C@H](Cc1ccccc1)NC(=O)[C@@H](N)CO)C(=O)N[C@@H](CCCNC(=N)N)C(=O)N[C@@H](Cc1ccc(O)cc1)C(N)=O` [SEQ ID NO 2, SFKLRY-NH2] (H-SFKLRY-NH2; N-terminus assumed) it was 1.21 µM; in that of `CC(C)C[C@H](NC(=O)[C@H](CCCCN)NC(=O)[C@H](Cc1ccccc1)NC(=O)[C@@H](N)CO)C(=O)N[C@H](CCCNC(=N)N)C(=O)N[C@@H](Cc1ccc(O)cc1)C(N)=O` [SEQ ID NO 7, SFKLrY-NH2(d-form)] (H-SFKL[dR]Y-NH2; N-terminus assumed), over 100 µM.
The same measure, in the same setting: under `CC(C)C[C@H](NC(=O)[C@H](CCCCN)NC(=O)[C@H](Cc1ccccc1)NC(=O)[C@@H](N)CO)C(=O)N[C@@H](CCCNC(=N)N)C(=O)N[C@H](Cc1ccc(O)cc1)C(N)=O` [SEQ ID NO 8, SFKLRy-NH2(d-form)] (H-SFKLR[dY]-NH2; N-terminus assumed) stands 1.14 µM.
On the same count and under the same terms, in the case of `CC(C)C[C@H](NC(=O)[C@H](CCCCN)NC(=O)[C@H](Cc1ccccc1)NC(=O)[C@@H](N)CO)C(=O)N[C@@H](CCCNC(=N)N)C(N)=O` [SEQ ID NO 12, SFKLR-NH2] (H-SFKLR-NH2; N-terminus assumed) it was 6.19 µM; in that of `CC(C)C[C@H](NC(=O)[C@H](CCCCN)NC(=O)[C@H](Cc1ccccc1)NC(=O)[C@@H](N)CO)C(N)=O` [SEQ ID NO 13, SFKL-NH2] (H-SFKL-NH2; N-terminus assumed), over 50 µM.
Take `CC(C)C[C@H](NC(=O)[C@H](CCCNC(=N)N)NC(=O)[C@H](Cc1ccccc1)NC(=O)[C@@H](N)CO)C(=O)N[C@@H](CCCNC(=N)N)C(=O)N[C@@H](Cc1ccc(O)cc1)C(N)=O` [SEQ ID NO 15, SFRLRY-NH2] (H-SFRLRY-NH2; N-terminus assumed): the EC50 was determined as 0.97 µM.
Still for that read-out and setting: in the case of `CC(C)C[C@H](NC(=O)[C@H](CCCCN)NC(=O)[C@H](Cc1ccccc1)NC(=O)[C@@H](N)CO)C(=O)N[C@@H](CCCNC(=N)N)C(=O)N[C@@H](CCCNC(=N)N)C(N)=O` [SEQ ID NO 16, SFKLRR-NH2] (H-SFKLRR-NH2; N-terminus assumed) it was 2.66 µM; in that of `CC[C@H](C)[C@H](NC(=O)[C@H](Cc1ccccc1)NC(=O)[C@@H](N)CO)C(=O)N[C@@H](CC(C)C)C(=O)N[C@@H](CCCNC(=N)N)C(=O)N[C@@H](Cc1ccc(O)cc1)C(N)=O` [SEQ ID NO 17, SFILRY-NH2] (H-SFILRY-NH2; N-terminus assumed), 0.99 µM.
Consider `CC[C@H](C)[C@H](NC(=O)[C@H](Cc1ccccc1)NC(=O)[C@@H](N)CO)C(=O)N[C@@H](CC(C)C)C(=O)N[C@@H](CCCNC(=N)N)C(=O)N[C@@H](CCCNC(=N)N)C(N)=O` [SEQ ID NO 18, SFILRR-NH2] (H-SFILRR-NH2; N-terminus assumed), for which the EC50 was 0.97 µM.
Still for that read-out and setting: in the case of `CC(C)C[C@H](NC(=O)[C@H](CCCCN)NC(=O)[C@H](Cc1ccccc1)NC(=O)[C@@H](N)CO)C(=O)N[C@@H](CCCNC(=N)N)C(=O)N[C@@H](Cc1c[nH]c2ccccc12)C(N)=O` [SEQ ID NO 19, SFKLRW-NH2] (H-SFKLRW-NH2; N-terminus assumed) it was 2.37 µM; in that of `CC[C@H](C)[C@H](NC(=O)[C@H](Cc1ccccc1)NC(=O)[C@@H](N)CO)C(=O)N[C@@H](CC(C)C)C(=O)N[C@@H](CCCNC(=N)N)C(=O)N[C@@H](Cc1c[nH]c2ccccc12)C(N)=O` [SEQ ID NO 20, SFILRW-NH2] (H-SFILRW-NH2; N-terminus assumed), 1.98 µM; in that of `CC(C)C[C@H](NC(=O)[C@H](CCCCN)NC(=O)[C@H](Cc1ccccc1)NC(=O)[C@@H](N)CO)C(=O)N[C@@H](CCCNC(=N)N)C(=O)N[C@@H](Cc1ccccc1)C(N)=O` [SEQ ID NO 21, SFKLRF-NH2] (H-SFKLRF-NH2; N-terminus assumed), 3.16 µM.
Same read-out and setting: under `CC[C@H](C)[C@H](NC(=O)[C@H](Cc1ccccc1)NC(=O)[C@@H](N)CO)C(=O)N[C@@H](CC(C)C)C(=O)N[C@@H](CCCNC(=N)N)C(=O)N[C@@H](Cc1ccccc1)C(N)=O` [SEQ ID NO 22, SFILRF-NH2] (H-SFILRF-NH2; N-terminus assumed) stands 2.01 µM; under `CC(C)C[C@H](NC(=O)[C@H](CCCCN)NC(=O)[C@H](Cc1ccccc1)NC(=O)[C@@H](N)CO)C(=O)N[C@@H](CCCNC(=N)N)C(=O)N[C@@H](Cc1c[nH]cn1)C(N)=O` [SEQ ID NO 23, SFKLRH-NH2] (H-SFKLRH-NH2; N-terminus assumed), 3.6 µM.
Still for that read-out and setting: in the case of `CC(C)C[C@H](NC(=O)[C@H](CCCCN)NC(=O)[C@H](Cc1ccccc1)NC(=O)[C@@H](N)[C@@H](C)O)C(=O)N[C@@H](CCCNC(=N)N)C(=O)N[C@@H](Cc1ccc(O)cc1)C(N)=O` [SEQ ID NO 24, TFKLRY-NH2] (H-TFKLRY-NH2; N-terminus assumed) it was 3.87 µM.

The next experiment deals with Rat aortic explants. Description: Aortic ring assay (vessel sprouting ex vivo). It is filed as cell-based. As to conditions: 50 ng/mL co-treatment with SFKLRY-NH2 1 μM; 7 days. The procedure:
The method developed by Nicosia and Ottinetti in In Vitro Cell Dev Biol 26 (1990), pp. 119-128 was used with some modifications. Aortas were harvested from 6-week-old Sprague-Dawley rats. After removing the surrounding fibro-adipose tissues, the rings were immersed in Matrigel in wells within culture dishes. The aortic rings were cultured (5% CO2, 37° C.) in serum-free M199 containing SFKLRY-NH2 (SEQ ID NO: 2), S1P, FYSRLK-NH2, or VEGF in the presence or absence of PTX or U73122. On day 7, sprouting from aortic explants was measured.
To address whether SFKLRY-NH2 (SEQ ID NO: 2) plays a role in sprouting of vascular endothelial cells ex vivo, aortic rings were analyzed in the presence of various stimuli including 1 μM SFKLRY-NH2 (SEQ ID NO: 2), 10 ng/mL VEGF, 10 nM S1P, and 10% FBS. […] Rat aortic explants in Matrigel were incubated with M-199 harboring SFKLRY-NH2 (SEQ ID NO: 2) (1 μM), FYSRLK-NH2 (1 μM), S1P (10 nM), VEGF (10 ng/mL), SFKLRY-NH2 (SEQ ID NO: 2) (1 μM) with U73122 (10 μM) or PTX (50 ng/mL), or 10% FBS and photographed after incubation for 7 days. Three independent experiments were then conducted, each in duplicate.
Regarding Pertussis toxin [PTX], the “effect on vessel sprouting promoted by SFKLRY-NH2” value is given as “markedly attenuated”.

Staying with this experiment, now noted: 10 μM co-treatment with SFKLRY-NH2 1 μM; 7 days.
With `COc1ccc2c(c1)CC[C@@H]1[C@@H]2CC[C@]2(C)[C@@H](NCCCCCCN3C(=O)C=CC3=O)CC[C@@H]12` [U73122], the “effect on vessel sprouting promoted by SFKLRY-NH2” value is “markedly attenuated”.
